{"source": "patent US20220387435A1", "about": "“USE OF MULTI-TARGET PROTEIN KINASE INHIBITOR” (CSPC Zhongqi Pharmaceutical Technology (Shijiazhuang) Co., …, priority 2019, published 2022)", "tested_on": "Chinese adult subjects with FLT3-mutant R/R AML", "assay": "Phase II clinical study, safety", "note": "Values joined by “and” are separate entries in the source; they are usually repeats but may differ in a detail not shown here. Equal values may be shown once."}
{"molecule": "CC(C)n1c(Nc2cccnc2)nc2cnc(Nc3ccc(N4CCN(C)CC4)cc3)nc21", "note": "[Compound A]", "values": [{"measurement": "Adverse reactions", "setting": "200 mg group (N = 4)", "result": "4 n (%) and 4 (100.0) n (%)"}, {"measurement": "Adverse reactions leading to death", "setting": "200 mg group (N = 4)", "result": "0 (0) n (%)"}, {"measurement": "Adverse reactions leading to dose reduction", "setting": "200 mg group (N = 4)", "result": "2 (50.0) n (%)"}, {"measurement": "Adverse reactions leading to withdrawal from the trial", "setting": "200 mg group (N = 4)", "result": "0 (0) n (%)"}, {"measurement": "Adverse reactions of > Grade 3", "setting": "200 mg group (N = 4)", "result": "3 (75.0) n (%)"}, {"measurement": "Important adverse events", "setting": "200 mg group (N = 4)", "result": "4 (100.0) n (%)"}, {"measurement": "Important adverse reactions", "setting": "200 mg group (N = 4)", "result": "3 (75.0) n (%)"}, {"measurement": "Non-hematologic adverse events of > Grade 3", "setting": "200 mg group (N = 4)", "result": "4 (100.0) n (%)"}, {"measurement": "Non-hematological adverse reactions of > Grade 3", "setting": "200 mg group (N = 4)", "result": "3 (75.0) n (%)"}, {"measurement": "Serious adverse events", "setting": "200 mg group (N = 4)", "result": "3 (75.0) n (%)"}, {"measurement": "Serious adverse reactions", "setting": "200 mg group (N = 4)", "result": "2 (50.0) n (%)"}, {"measurement": "adverse events of > Grade 4", "setting": "200 mg group (N = 4)", "result": "2 (50.0) n (%)"}, {"measurement": "adverse reactions of > Grade 4", "setting": "200 mg group (N = 4)", "result": "2 (50.0) n (%)"}, {"measurement": "electrocardiogram high voltage", "setting": "300 mg QD group", "result": 1, "unit": "subject"}, {"measurement": "adverse reactions classified as cardiac organ diseases (SOC)", "setting": "300 mg QD group (1 subject)", "result": 7.7, "unit": "%"}, {"measurement": "adverse reactions classified as hepatobiliary system disease (SOC)", "setting": "300 mg QD group (2 subjects)", "result": 15.4, "unit": "%"}, {"measurement": "elevated gamma-glutamyltransferase", "setting": "300 mg QD group (2 subjects)", "result": 15.4, "unit": "%"}, {"measurement": "elevated blood alkaline phosphatase", "setting": "300 mg QD group (3 subjects)", "result": 23.1, "unit": "%"}, {"measurement": "elevated hemobilirubin", "setting": "300 mg QD group (3 subjects)", "result": 23.1, "unit": "%"}, {"measurement": "incidence of hematological adverse reactions of grade ≥4", "setting": "300 mg QD group (9 cases)", "result": 69.2, "unit": "%"}, {"measurement": "Adverse events", "setting": "300 mg group (N = 14)", "result": "13 (100.0) n (%)"}, {"measurement": "Adverse events leading to dose reduction", "setting": "300 mg group (N = 14)", "result": "2 (15.4) n (%)"}, {"measurement": "Adverse events leading to withdrawal from the trial", "setting": "300 mg group (N = 14)", "result": "0 (0) n (%)"}, {"measurement": "Adverse reactions", "setting": "300 mg group (N = 14)", "result": "12 n (%) and 12 (92.3) n (%)"}, {"measurement": "Adverse reactions leading to death", "setting": "300 mg group (N = 14)", "result": "1 (7.7) n (%)"}, {"measurement": "Adverse reactions leading to dose reduction", "setting": "300 mg group (N = 14)", "result": "1 (7.7) n (%)"}, {"measurement": "Adverse reactions leading to withdrawal from the trial", "setting": "300 mg group (N = 14)", "result": "0 (0) n (%)"}, {"measurement": "Adverse reactions of > Grade 3", "setting": "300 mg group (N = 14)", "result": "9 (69.2) n (%)"}, {"measurement": "Important adverse events", "setting": "300 mg group (N = 14)", "result": "11 (84.6) n (%)"}, {"measurement": "Non-hematological adverse reactions of > Grade 3", "setting": "300 mg group (N = 14)", "result": "7 (53.8) n (%)"}, {"measurement": "Serious adverse events", "setting": "300 mg group (N = 14)", "result": "10 (76.9) n (%)"}, {"measurement": "Serious adverse reactions", "setting": "300 mg group (N = 14)", "result": "6 (46.2) n (%)"}, {"measurement": "adverse events of > Grade 4", "setting": "300 mg group (N = 14)", "result": "9 (69.2) n (%)"}, {"measurement": "adverse reactions of > Grade 4", "setting": "300 mg group (N = 14)", "result": "9 (69.2) n (%)"}, {"measurement": "serious hematological adverse reaction: anemia", "setting": "31 subjects (1 case)", "result": 3.2, "unit": "%"}, {"measurement": "serious hematological adverse reaction: bone marrow failure", "setting": "31 subjects (1 case)", "result": 3.2, "unit": "%"}, {"measurement": "serious hematological adverse reaction: hemolyticanemia", "setting": "31 subjects (1 case)", "result": 3.2, "unit": "%"}, {"measurement": "serious hematological adverse reaction: leukocytopenia", "setting": "31 subjects (1 case)", "result": 3.2, "unit": "%"}, {"measurement": "serious hematological adverse reaction: neutropenia", "setting": "31 subjects (2 cases)", "result": 6.5, "unit": "%"}, {"measurement": "serious hematological adverse reaction: thrombocytopenia", "setting": "31 subjects (3 cases)", "result": 9.7, "unit": "%"}, {"measurement": "adverse reactions of grade ≥3: infectious pneumonia", "setting": "31 subjects (4 cases)", "result": 12.9, "unit": "%"}, {"measurement": "adverse reactions of grade ≥3: diarrhea", "setting": "31 subjects (5 cases)", "result": 16.1, "unit": "%"}, {"measurement": "adverse reactions of grade ≥3: Lymphocytopenia", "setting": "31 subjects (6 cases)", "result": 19.4, "unit": "%"}, {"measurement": "adverse reactions of grade ≥3: anemia", "setting": "31 subjects (6 cases)", "result": 19.4, "unit": "%"}, {"measurement": "adverse reactions of grade ≥3: thrombocytopenia", "setting": "31 subjects (8 cases)", "result": 25.8, "unit": "%"}, {"measurement": "adverse reactions of grade ≥3: neutropenia", "setting": "31 subjects (11 cases)", "result": 35.5, "unit": "%"}, {"measurement": "adverse reactions of grade ≥3: leukocytopenia", "setting": "31 subjects (16 cases)", "result": 51.6, "unit": "%"}, {"measurement": "Adverse events", "setting": "Total (N = 31)", "result": "31 n (%) and 31 (100.0) n (%)"}, {"measurement": "Adverse events leading to death", "setting": "Total (N = 31)", "result": "8 (25.8) n (%)"}, {"measurement": "Adverse events leading to dose reduction", "setting": "Total (N = 31)", "result": "7 (22.6) n (%)"}, {"measurement": "Adverse events leading to withdrawal from the trial", "setting": "Total (N = 31)", "result": "4 (12.9) n (%)"}, {"measurement": "Adverse events of > Grade 3", "setting": "Total (N = 31)", "result": "28 (90.3) n (%)"}, {"measurement": "Adverse reactions", "setting": "Total (N = 31)", "result": "28 (90.3%) n (%) and 28 (90.3) n (%)"}, {"measurement": "Adverse reactions leading to death", "setting": "Total (N = 31)", "result": "2 (6.5) n (%)"}, {"measurement": "Adverse reactions leading to dose reduction", "setting": "Total (N = 31)", "result": "6 (19.4) n (%)"}, {"measurement": "Adverse reactions leading to withdrawal from the trial", "setting": "Total (N = 31)", "result": "0 (0) n (%)"}, {"measurement": "Adverse reactions of > Grade 3", "setting": "Total (N = 31)", "result": "21 (67.7) n (%)"}, {"measurement": "Important adverse events", "setting": "Total (N = 31)", "result": "26 (83.9) n (%)"}, {"measurement": "Important adverse reactions", "setting": "Total (N = 31)", "result": "19 (61.3) n (%)"}, {"measurement": "Non-hematologic adverse events of > Grade 3", "setting": "Total (N = 31)", "result": "25 (80.6) n (%)"}, {"measurement": "Non-hematological adverse reactions of > Grade 3", "setting": "Total (N = 31)", "result": "14 (45.2) n (%)"}, {"measurement": "Serious adverse events", "setting": "Total (N = 31)", "result": "24 (77.4) n (%)"}, {"measurement": "Serious adverse reactions", "setting": "Total (N = 31)", "result": "13 (41.9) n (%)"}, {"measurement": "adverse events of > Grade 4", "setting": "Total (N = 31)", "result": "19 (61.3) n (%)"}, {"measurement": "adverse reactions of > Grade 4", "setting": "Total (N = 31)", "result": "18 (58.1) n (%)"}, {"measurement": "adverse reactions of QT interval prolongation", "setting": "all groups", "result": "No adverse reactions of QT interval prolongation were observed"}, {"measurement": "examination abnormality related to the heart (SOC)", "setting": "all groups", "result": 3, "unit": "subjects"}, {"measurement": "grade of heart-related adverse reactions", "setting": "all groups", "result": "1-2 Grades"}, {"measurement": "grade of hepato toxicities", "setting": "all groups", "result": "1-2 Grades"}, {"measurement": "liver-, kidney-, and heart-related adverse reactions of grade ≥3", "setting": "throughout the trial", "result": "no liver-, kidney-, and heart-related adverse reactions of grade ≥3 occurred"}, {"measurement": "elevated aspartate amino transferase", "setting": "total (1 subject)", "result": 3.2, "unit": "%"}, {"measurement": "elevated gamma-glutamyltransferase", "setting": "total (2 subjects)", "result": 6.5, "unit": "%"}, {"measurement": "elevated blood alkaline phosphatase", "setting": "total (3 subjects)", "result": 9.7, "unit": "%"}, {"measurement": "adverse reactions classified as hepatobiliary system disease (SOC)", "setting": "total (4 subjects)", "result": 12.9, "unit": "%"}, {"measurement": "elevated hemobilirubin", "setting": "total (6 subjects)", "result": 19.4, "unit": "%"}, {"measurement": "adverse reactions classified as cardiac organ diseases (SOC)", "setting": "total, 31 subjects (3 subjects)", "result": 9.7, "unit": "%"}]}
